Results on two compounds are retold here after paper PMC2758489 (Journal of neurochemistry, 2009).

The test concerns the target tau (Homo sapiens, UniProt P10636, P618L). Kind of test: heparin-induced fibrillization, ThT fluorescence. The format is biochemical.

tau, sequence (P10636 561-689 P618L): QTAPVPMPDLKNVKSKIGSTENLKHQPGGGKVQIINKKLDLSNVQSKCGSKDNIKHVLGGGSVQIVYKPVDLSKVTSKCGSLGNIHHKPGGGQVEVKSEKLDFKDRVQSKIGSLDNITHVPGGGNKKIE

The term IC50 denotes the concentration needed to halve the response being measured. A high value points to lower potency. `C/C=C(/C=O)[C@H](CC=O)CC(=O)OCCc1ccc(O)cc1` [(+)-oleocanthal] returned an IC50 of around 3.5 µM.

Turning to `C/C=C(/C=O)[C@@H](CC=O)CC(=O)OCCc1ccc(O)cc1` [compound 1, (-)-oleocanthal], the IC50 is around 2.9 µM.
